We go through 16 compounds from EPA's ToxValDB 9.5.

Data set [1] relates to Rattus norvegicus.
The test system of data set [2] is Rattus norvegicus. The following applies: oral.
The test system of data set [3] is Rattus norvegicus. The following applies: repeat dose other; oral.
Data set [4] relates to Mus musculus. The following applies: developmental; oral; gavage; M; neurobehavioral effects.
Data set [5] deals with Mus musculus. The following applies: reproduction developmental, oral, gavage, M, NMRI, generation: P0.
The test system of data set [6] is Rattus norvegicus. The following applies: short-term, duration: 28 days, oral, gavage, Sprague-Dawley.
In data set [7] the test system is Rattus norvegicus. The following applies: duration: 2 years, oral.
Data set [8] has as its system Mus musculus. The following applies: repeat dose other; oral.
Data set [9] concerns Rattus norvegicus. The following applies: oral, diet.
The test system of data set [10] is Rattus norvegicus. The following applies: hepatic.
Data set [11] relates to Rattus norvegicus. The following applies: reproduction developmental, duration: 43 days, oral, gavage, Sprague-Dawley.
In data set [12] the test system is Rattus norvegicus. The following applies: Hershberger; duration: 10 days; oral; gavage; Sprague-Dawley; anti-androgenic + no effect on PPS, AST or thyroid / decreasing trend significant for LABC.
The mark [13] stands for this setting: subchronic, oral, M/F, lesions in liver, kidney and thyroid.
Setting [14] is: reproduction developmental, oral, M/F, reduced mean body weight.
Where [15] appears, read: M, Clinical Observation: Locomotor activity decrease, Salivation + Functional Observational Battery: Locomotor activity decrease, Salivation + ….
[16] abbreviates: chronic, oral, M, testicular damage.
The mark [17] stands for this setting: chronic, duration: 2 years, oral, diet, M/F, increased kidney body weight ratio.
The mark [18] stands for this setting: reproduction developmental, oral, M/F, degenerative cardiomyopathy.

As a reminder, the LOAEL is the lowest dose or exposure tested at which an adverse effect was seen. For orientation: NOAEL means the highest dose or exposure tested at which no adverse effect was seen. Turning to `CC(Cl)C(Cl)Cl` (configuration not stated) [1,1,2-Trichloropropane], in data set [1] (setting [13]), the LOAEL was 150 mg/kg-day and the NOEL is 15 mg/kg-day. For the same compound, in [2] (subchronic, duration: 90 days, drinking water, M/F, Sprague-Dawley, Hepatic, Other), the no-observed-adverse-effect level (NOAEL) was 14 mg/kg-day.

In [3], `Clc1cc2oc3cc(Cl)c(Cl)c(Cl)c3c2cc1Cl` [1,2,3,7,8-Pentachlorodibenzofuran] yielded an LOAEL of 0.0016 mg/kg-day and a no-observed-adverse-effect level (NOAEL) of 0.00016 mg/kg-day.

Consider `Brc1cc(Br)c(Oc2cc(Br)c(Br)cc2Br)cc1Br` [2,2',4,4',5,5'-Hexabromodiphenyl ether], for which, in data set [4], the LOAEL stood at 0.9 mg/kg-day and the NOAEL stood at 0.45 mg/kg-day. Moreover, the LOEL in [5] (P0: Morris water maze (latency, last trial) + P0: Morris water maze (latency, middle trial) + P0: Morris water maze (latency, reversal trial…) stood at 0.9 mg/kg-day. The compound also came in with an LOEL in data set [5] (P0: Morris water maze (latency, middle trial)) of 9 mg/kg-day.

`Cc1ccc(N)c(C)c1` [2,4-Dimethylaniline] returned an LOAEL in data set [2] (chronic, duration: 6 months, diet, M, Osborne-Mendel) of 18 mg/kg-day.

As for `Nc1cccc(O)c1` [3-Aminophenol], the NOAEL was found to be 240 mg/kg-day in data set [6] (M/F, Clinical Observation: Tremor Salivation + Body Weight Changes: decrease + Food Consumption: decrease + Water Consumption: increase + …) and 80 mg/kg-day in data set [2] (short-term, duration: 18 days, gavage, M/F, Sprague-Dawley, Whole Body Effects).

In turn, `O=S(=O)(O)c1ccc(Cl)cc1` [4-Chlorobenzenesulphonic acid] gave an NOAEL in [2] (subchronic, duration: 32 days, gavage, M/F, S-D) of 1800 mg/kg-day.

In [7] (chronic, diet, M, Fischer 344, Carcinogenicity), `COc1cc2c(c3oc(=O)c4c(c13)CCC4=O)[C@]1(O)C=CO[C@@H]1O2` [Aflatoxin M1] yielded an NOEL of 0.1 mg.

For the compound `c1ccc2c(c1)cc1ccc3cccc4ccc2c1c34` [Benzo[a]pyrene], in data set [8], the LOAEL stood at 10 mg/kg-day and the no observed adverse effect level (NOAEL) is 1 mg/kg-day. This compound came in with an LOAEL in [1] (developmental, duration: 9 days, inhalation, M/F, reduced embryo/fetal survival) of 0.025 mg/m3.

In [1] (setting [14]), `O=C1C2CC=CCC2C(=O)N1SC(Cl)(Cl)Cl` (configuration not stated) [Captan] showed an LEL of 25 mg/kg-day and an NOEL of 12.5 mg/kg-day. The same compound registered an NOEL in data set [9] (subchronic, Whole body: Decreased weight) of 12.5 mg/kg-day.

In the case of `ClC(Cl)(Cl)Cl` [Carbon tetrachloride], the NOAEL is 16 mg/kg-day in [3]; < 20 mg/kg-day in data set [6] (setting [15]); 31.5 mg/m3 in [10] (chronic, duration: 104 weeks, inhalation, whole body, M/F, Fischer 344); 31.5 mg/m3 in data set [10] (chronic, duration: 205 days, inhalation, M/F, Wistar); 1 mg/kg-day in data set [10] (subchronic, duration: 12 weeks, oral, gavage, M, Sprague-Dawley). The NOEL in data set [6] (setting [15]) is < 20 mg/kg-day. For the same compound, the LOAEL in data set [10] (short-term, duration: 10 days, oral, gavage, M, Fischer 344) was found to be 5 mg/kg-day.

In the case of `Cc1cc(C(C#N)c2ccc(Cl)cc2)c(Cl)cc1NC(=O)c1cc(I)cc(I)c1O` (configuration not stated) [Closantel], the NOEL in [7] (chronic, diet, M/F, Wistar, Increased incidences of sperm granulomas in the epididymes of male rats) amounted to 2.5 mg/kg-day; in data set [7] (dietary / carcinogenicity, feed, M/F, Wistar, Increased incidences of sperm granulomas in the epididymes of male rats), 2.5 mg/kg-day.

In data set [1] (setting [16]), `NC1CCCCC1` [Cyclohexylamine] came in with an LOAEL of 60 mg/kg-day and a no-observed-adverse-effect level (NOAEL) of 18 mg/kg-day. In data set [9] (subchronic, duration: 90 days, Testis: Decreased weight + Whole body: Decreased weight gain), the NOAEL was 30 mg/kg-day.

As for `CC(Cl)(Cl)C(=O)O` [Dalapon], in [1] (setting [17]), the LEL came to 28.2 mg/kg-day and the NOEL came to 8.45 mg/kg-day. The same compound showed an NOEL in data set [9] (chronic, duration: 2 years, Kidney: Increased relative weight) of 8.45 mg/kg-day.

`BrCBr` [Dibromomethane]: the LOAEL in data set [11] (F) was 500 mg/kg-day; in data set [11] (M), 150 mg/kg-day; in data set [11] (generation: F1), 500 mg/kg-day. In addition, the NOAEL in [11] (F) turned out to be 150 mg/kg-day; in data set [11] (M) it was 50 mg/kg-day; in data set [11] (generation: F1), 150 mg/kg-day; in data set [2] (short-term, duration: 28 days, drinking water, M/F, Sprague-Dawley, Hematologic), 8.6 mg/kg-day.

In data set [2] (subchronic, duration: 13 weeks, diet, M), `O=S(=O)(c1ccccc1)c1ccccc1` [Diphenylsulfone] returned a no-observed-adverse-effect level (NOAEL) of 8 mg/kg-day.

Turning to `CCCN(CCC)C(=O)SCC` [EPTC], the LEL in data set [1] (setting [18]) was determined as 10 mg/kg-day. Moreover, the NOEL in data set [1] (setting [18]) turned out to be 2.5 mg/kg-day; in data set [12], 125 mg/kg-day; in data set [9] (reproduction developmental, Heart: Degenerative cardiomyopathy) it was 2.5 mg/kg-day.
